Experimental data published in PubChem BioAssay AID330 (DTP/NCI, 2004).
“And” between values parts separate entries of the source, which are not always exact repeats. Equal values may be shown once. Inconclusive results and toxic doses are left out. Peptide text beside a SMILES is read from it. * marks the point of attachment. Trt = c1ccc(C(c2ccccc2)(c2ccccc2)*)cc1

Tested on: P388 leukemia ip, CD2F1 mice, survival T/C
Experiment: NCI In Vivo Anticancer Drug Screen. Data for tumor model P388 Leukemia (intraperitoneal) in CD2F1 (CDF1) mice
Conditions: endpoint: median survival time, higher = longer survival
In short: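 Mice carrying the transplanted tumor received test compound or vehicle. Survival was recorded in each group, and the value is the treated-group measurement divided by that of the vehicle-treated control group.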

[1] = dose: 60.0 mg/kg/injection, schedule: Q01DX005 (ip), vehicle: Klucel (hydroxypropylcellulose) (HPC)
[2] = dose: 50.0 mg/kg/injection, schedule: Q01DX005 (ip), vehicle: saline with Tween-80
[3] = dose: 50.0 mg/kg/injection, schedule: Q01DX009 (ip), vehicle: saline with Tween-80
[4] = dose: 100.0 mg/kg/injection, schedule: Q01DX009 (ip), vehicle: saline with Tween-80
[5] = dose: 200.0 mg/kg/injection, schedule: Q01DX009 (ip), vehicle: saline with Tween-80
[6] = dose: 100.0 mg/kg/injection, schedule: Q01DX005 (ip), vehicle: saline with Tween-80
[7] = dose: 200.0 mg/kg/injection, schedule: Q01DX005 (ip), vehicle: saline with Tween-80
[8] = dose: 50.0 mg/kg/injection, schedule: Q01DX005 (ip), vehicle: saline
[9] = dose: 100.0 mg/kg/injection, schedule: Q01DX005 (ip), vehicle: saline
[10] = dose: 200.0 mg/kg/injection, schedule: Q01DX005 (ip), vehicle: saline

CCN(CC)CCN1c2ccccc2Sc2ccc3ccccc3c21
T/C (dose: 50.0 mg/kg/injection, schedule: Q01DX005 (ip), vehicle: saline + Tween-80 + alcohol): 107 % of control | T/C (dose: 100.0 mg/kg/injection, schedule: Q01DX005 (ip), vehicle: saline + Tween-80 + alcohol): 105 % of control | T/C (dose: 200.0 mg/kg/injection, schedule: Q01DX005 (ip), vehicle: saline + Tween-80 + alcohol): 102 % of control

CCCCC([Se])=Nc1ccc(Br)cc1
T/C (dose: 6.25 mg/kg/injection, schedule: Q01DX009 (ip), vehicle: Klucel (hydroxypropylcellulose) (HPC)): 106 % of control | T/C (dose: 12.5 mg/kg/injection, schedule: Q01DX009 (ip), vehicle: Klucel (hydroxypropylcellulose) (HPC)): 104 % of control | T/C (dose: 25.0 mg/kg/injection, schedule: Q01DX009 (ip), vehicle: Klucel (hydroxypropylcellulose) (HPC)): 104 % of control

c1ccc(-c2cnn3nnnc3n2)cc1
T/C (dose: 100.0 mg/kg/injection, schedule: Q01DX001 (ip), vehicle: saline): 104 % of control | T/C (dose: 200.0 mg/kg/injection, schedule: Q01DX001 (ip), vehicle: saline): 102 % of control | T/C (dose: 400.0 mg/kg/injection, schedule: Q01DX001 (ip), vehicle: saline): 101 % of control

COC(=O)C(CC(C)C)NC(=O)C(N)CSC(c1ccccc1)(c1ccccc1)c1ccccc1 (stereo not drawn) (H-Cys(Trt)-Leu-OMe; configuration not given here)
T/C [1]: 113 % of control

CC1C2CCC(C2)C1CNCC1C2CCC(C2)C1C (stereo not drawn)
T/C (dose: 12.5 mg/kg/injection, schedule: Q01DX005 (ip), vehicle: saline with Tween-80): 100 % of control | T/C (dose: 25.0 mg/kg/injection, schedule: Q01DX005 (ip), vehicle: saline with Tween-80): 103 % of control | T/C [2]: 101 % of control and 105 % of control

Cc1c(N)nc(C(CC(N)=O)NCC(N)C(N)=O)nc1C(=O)NC(C(=O)NC(C)C(O)C(C)C(=O)NC(C(=O)NCCc1nc(-c2nc(C(=O)NCCCNCCCc3ccccn3)cs2)cs1)C(C)O)C(OC1OC(CO)C(O)C(O)C1OC1OC(CO)C(O)C(OC(N)=O)C1O)c1cnc[nH]1 (stereo not drawn)
T/C (dose: 0.25 mg/kg/injection, schedule: Q01DX009 (ip), vehicle: water): 110 % of control | T/C (dose: 0.5 mg/kg/injection, schedule: Q01DX009 (ip), vehicle: water): 104 % of control | T/C (dose: 1.0 mg/kg/injection, schedule: Q01DX009 (ip), vehicle: water): 111 % of control | T/C (dose: 2.0 mg/kg/injection, schedule: Q01DX009 (ip), vehicle: water): 101 % of control | T/C (dose: 4.0 mg/kg/injection, schedule: Q01DX009 (ip), vehicle: saline): 104 % of control | T/C (dose: 8.0 mg/kg/injection, schedule: Q01DX009 (ip), vehicle: saline): 104 % of control | T/C (dose: 16.0 mg/kg/injection, schedule: Q01DX009 (ip), vehicle: saline): 112 % of control | T/C (dose: 32.0 mg/kg/injection, schedule: Q01DX009 (ip), vehicle: saline): 105 % of control

COc1cccc2c1C(=O)c1c(O)c3c(c(O)c1C2=O)CC(O)(C(C)=O)CC3OC1CC(N)C(C(C)O)O1 (stereo not drawn)
T/C (dose: 2.25 mg/kg/injection, schedule: Q04DX003 (ip), vehicle: distilled water + Tween-80): 100 % of control | T/C (dose: 4.5 mg/kg/injection, schedule: Q04DX003 (ip), vehicle: distilled water + Tween-80): 99 % of control | T/C (dose: 9.0 mg/kg/injection, schedule: Q04DX003 (ip), vehicle: distilled water + Tween-80): 110 % of control | T/C (dose: 18.0 mg/kg/injection, schedule: Q04DX003 (ip), vehicle: distilled water + Tween-80): 101 % of control | T/C (dose: 36.0 mg/kg/injection, schedule: Q04DX003 (ip), vehicle: distilled water + Tween-80): 110 % of control

O=c1[nH]c2cc([N+](=O)[O-])ccc2nc1/C=C(\O)c1ccc([N+](=O)[O-])cc1
T/C (dose: 60.0 mg/kg/injection, schedule: Q01DX005 (ip), vehicle: Klucel + Tween-80): 87 % of control | T/C (dose: 120.0 mg/kg/injection, schedule: Q01DX005 (ip), vehicle: Klucel + Tween-80): 86 % of control | T/C (dose: 240.0 mg/kg/injection, schedule: Q01DX005 (ip), vehicle: Klucel + Tween-80): 90 % of control

CCN(CC)CCOc1cccc2c1C(=O)c1c(O)cccc1C2=O
T/C (dose: 25.0 mg/kg/injection, schedule: Q01DX009 (ip), vehicle: saline with Tween-80): 103 % of control and 95 % of control | T/C [3]: 105 % of control and 97 % of control | T/C [4]: 158 % of control

CN1C(=O)c2ccccc2Cc2c(NCc3ccccc3)ncnc21
T/C [3]: 108 % of control | T/C [4]: 104 % of control | T/C [5]: 100 % of control

ClC1=C(Cl)C2(Cl)C3C4CC(C5OC45)C3C1(Cl)C2(Cl)Cl (stereo not drawn)
T/C (dose: 3.13 mg/kg/injection, schedule: Q01DX009 (ip), vehicle: saline with Tween-80): 104 % of control and 97 % of control | T/C (dose: 6.25 mg/kg/injection, schedule: Q01DX009 (ip), vehicle: saline with Tween-80): 90 % of control and 97 % of control | T/C (dose: 12.5 mg/kg/injection, schedule: Q01DX009 (ip), vehicle: saline with Tween-80): 86 % of control

O=c1c(Cc2ccccc2)coc2ccccc12
T/C (dose: 60.0 mg/kg/injection, schedule: Q01DX005 (ip), vehicle: saline with Tween-80): 106 % of control | T/C (dose: 120.0 mg/kg/injection, schedule: Q01DX005 (ip), vehicle: saline with Tween-80): 100 % of control | T/C (dose: 240.0 mg/kg/injection, schedule: Q01DX005 (ip), vehicle: saline with Tween-80): 103 % of control

CCOC(=O)CNC(=O)NN(c1ccccc1)C1CCS(=O)(=O)C1 (stereo not drawn)
T/C [2]: 100 % of control | T/C [6]: 90 % of control | T/C [7]: 94 % of control

NC1CCNC(O)[N-]1.NC1CCNC(O)[N-]1.[Cl][Pd][Cl] (stereo not drawn)
T/C [1]: 97 % of control | T/C (dose: 120.0 mg/kg/injection, schedule: Q01DX005 (ip), vehicle: Klucel (hydroxypropylcellulose) (HPC)): 103 % of control | T/C (dose: 240.0 mg/kg/injection, schedule: Q01DX005 (ip), vehicle: Klucel (hydroxypropylcellulose) (HPC)): 112 % of control

NC(C(=O)O)c1ccc(CBr)cc1 (stereo not drawn)
T/C (dose: 25.0 mg/kg/injection, schedule: Q04DX003 (ip), vehicle: saline with Tween-80): 151 % of control | T/C (dose: 100.0 mg/kg/injection, schedule: Q04DX003 (ip), vehicle: saline with Tween-80): 151 % of control and 165 % of control

O=C(Oc1ccc(Cl)cc1Cl)C(Cl)=C(Cl)Cl
T/C (dose: 50.0 mg/kg/injection, schedule: Q01DX009 (ip), vehicle: saline): 97 % of control | T/C (dose: 100.0 mg/kg/injection, schedule: Q01DX009 (ip), vehicle: saline): 111 % of control | T/C (dose: 200.0 mg/kg/injection, schedule: Q01DX009 (ip), vehicle: saline): 101 % of control

COc1cc(OC)c(/C=C\c2nccc3ccccc23)c(OC)c1
T/C [3]: 95 % of control | T/C [4]: 96 % of control | T/C [5]: 96 % of control

O=C(O)c1cc(Br)cc(SSc2cc(Br)cc(C(=O)O)c2O)c1O
T/C [3]: 96 % of control

COc1ccn(C2CCCCO2)c(=O)n1 (stereo not drawn)
T/C [8]: 108 % of control | T/C [9]: 108 % of control | T/C [10]: 108 % of control

C/C(=N\NC(=S)N1CCN(c2cnccn2)CC1)c1ccccn1
T/C (dose: 3.75 mg/kg/injection, schedule: Q01DX005 (ip), vehicle: saline with Tween-80): 120 % of control | T/C (dose: 7.5 mg/kg/injection, schedule: Q01DX005 (ip), vehicle: saline with Tween-80): 120 % of control and 122 % of control

c1ccc(CN2COC3CCCCC32)cc1 (stereo not drawn)
T/C (dose: 25.0 mg/kg/injection, schedule: Q01DX005 (ip), vehicle: saline): 107 % of control and 108 % of control | T/C [8]: 101 % of control and 105 % of control and 119 % of control | T/C [9]: 101 % of control and 107 % of control and 121 % of control | T/C [10]: 103 % of control and 105 % of control

CC(SC(SC(C)C(=O)O)c1ccccc1)C(=O)O (stereo not drawn)
T/C (dose: 100.0 mg/kg/injection, schedule: Q01DX001 (ip), vehicle: other): 105 % of control | T/C (dose: 200.0 mg/kg/injection, schedule: Q01DX001 (ip), vehicle: other): 107 % of control | T/C (dose: 400.0 mg/kg/injection, schedule: Q01DX001 (ip), vehicle: other): 98 % of control

COC(=O)Nc1csc(NC(=O)OC)n1
T/C [2]: 96 % of control | T/C [6]: 95 % of control | T/C [7]: 87 % of control

O=c1oc(-c2ccccc2Br)ns1
T/C (dose: 100.0 mg/kg/injection, schedule: Q01DX009 (ip), vehicle: Klucel (hydroxypropylcellulose) (HPC)): 107 % of control | T/C (dose: 200.0 mg/kg/injection, schedule: Q01DX009 (ip), vehicle: Klucel (hydroxypropylcellulose) (HPC)): 97 % of control

CCOC(=O)C(=CNc1ccccc1-n1cccc1)C(=O)OCC
T/C (dose: 50.0 mg/kg/injection, schedule: Q01DX005 (ip), vehicle: Klucel (hydroxypropylcellulose) (HPC)): 100 % of control | T/C (dose: 100.0 mg/kg/injection, schedule: Q01DX005 (ip), vehicle: Klucel (hydroxypropylcellulose) (HPC)): 108 % of control | T/C (dose: 200.0 mg/kg/injection, schedule: Q01DX005 (ip), vehicle: Klucel (hydroxypropylcellulose) (HPC)): 93 % of control

CC1S(=O)(=O)OCCCOS1(=O)=O
T/C (dose: 12.5 mg/kg/injection, schedule: Q01DX005 (ip), vehicle: Klucel (hydroxypropylcellulose) (HPC)): 119 % of control | T/C (dose: 25.0 mg/kg/injection, schedule: Q01DX005 (ip), vehicle: Klucel (hydroxypropylcellulose) (HPC)): 154 % of control
